Entries after “also recorded” stand apart in the source; their conditions may differ.
What was measured:
[1] = system: patients with alcohol dependence; test: Study 12014A: randomised, double blind, placebo controlled 6 month efficacy study, reduction of alcohol consumption; type: in vivo, human; settings: nalmefene 18 mg as-needed, MMRM
Experimental: (§1) The efficacy of nalmefene on the reduction of alcohol consumption in patients with alcohol dependence (DSM-IV) was evaluated in two efficacy studies (Study 12014A and Study 12023A). Both studies were randomised, double blind, two-parallel group, placebo controlled, and after 6 months of treatment, patients receiving nalmefene were re-randomised to receive either placebo or nalmefene in a 1 month run out period. The efficacy of nalmefene was also evaluated in a randomised, double blind, two parallel group, placebo controlled 1 year safety study (Study 12013A). The studies included 1941 patients, 1144 of whom were treated with nalmefene 18 mg in an as-needed dosing regimen.
(§2) The studies were conducted applying an outpatient setting without preceding detoxification. Higher CIWA withdrawal scores at Screening as well as a history of delirium tremens and seizures would be indicative for the necessity of prior inpatient detoxification. Patients with abuse of substance other than alcohol and subjects with significant depressive or psychotic co-morbidity were excluded.
(§3) The studies included outpatients, aged ≧18 years, with a primary diagnosis of alcohol dependence. A patient was eligible for participation in the study if, in the 4 weeks preceding the Screening Visit (Baseline period), he/she had >6 HDDs, at least a medium DRL (calculated as mean daily alcohol consumption in g/day i.e. >40 g/day for men and >20 g/day for women calculated as mean daily alcohol consumption over the 4 week period preceding the screening visit), and ≦14 consecutive abstinent days. The timeline followback (TLFB) method was used to obtain estimates of the patient's daily drinking.
(§4) The studies were conducted over a 34 week period (12 visits) in total and consisted of four sequential periods: a 2-week screening period, a 24-week double-blind treatment period, a 4-week double-blind placebo-controlled run-out in each of the treatment arms and finally a 4-week safety follow-up. One to two weeks after the Screening Visit the patients were randomised 1:1 to 24 weeks of as-needed, double-blind treatment (Main Treatment Period: MTP) with nalmefene (18 mg) or placebo. The patients who completed 24 weeks of double-blind treatment entered a 4-week, double-blind Run-out Period (ROP). The patients randomised to nalmefene were re-randomised 1:1 to receive nalmefene (18 mg, as-needed) or placebo and the patients randomised to placebo continued on placebo.
(§5) The Timeline Follow-back (TLFB) method was used to collect self-reported drinking data (alcohol consumption).
(§6) At the initial visit, the patients' clinical status, social situation, and alcohol consumption pattern were evaluated (based on patient reporting). After a 1- to 2-week observation period the drinking risk level was re-assessed (i.e. the […] daily alcohol consumption over the 1-2 week assessment period was calculated), and treatment with nalmefene was initiated together with counseling with focus on motivating the patients to adhere to the treatment and to change their drinking behavior. In all the studies, a motivational and adherence enhancing intervention, according to the BRENDA model, was administered to all the patients to support the patients in changing their behavior and to enhance adherence to treatment.
(§7) The patients' alcohol intake (g/day) was estimated based on national definitions of standard units (subsequently converted into grams of alcohol). To define the standard units, a standard drink conversion card was distributed to each patient at the Screening Visit. Each patient was also provided with a calendar that he/she could use to support his/her input to the TLFB, or he/she could use a personal calendar, if preferred. For all the variables derived from the TLFB data, baseline was defined as the month (that is 4 weeks/28 consecutive days) preceding the Screening Visit. The investigational medicinal product (IMP) was taken as-needed. […]

[2] = system: alcohol dependence; settings: 5, 20 and 40 mg daily doses; Anton et al. 2004; cited from earlier work
[3] = system: patients with alcohol dependence; test: Study 12023A: randomised, double blind, placebo controlled 6 month efficacy study, reduction of alcohol consumption; type: in vivo, human; settings: nalmefene 18 mg as-needed, MMRM
Experimental: as §1, §2, §3, §4, §5, §6, §7

[4] = system: alcohol dependence; settings: 20 to 80 mg daily oral dosing; Mason et al. 1999; cited from earlier work
[5] = system: patients with alcohol dependence; test: Study 12013A: randomised, double blind, placebo controlled 1 year safety study, reduction of alcohol consumption; type: in vivo, human; settings: nalmefene 18 mg as-needed, MMRM
Experimental: as §1, §2, §3, §5, §6
The patients' alcohol intake (g/day) was estimated based on national definitions of standard units (subsequently converted into grams of alcohol). To define the standard units, a standard drink conversion card was distributed to each patient at the Screening Visit. Each patient was also provided with a calendar that he/she could use to support his/her input to the TLFB, or he/she could use a personal calendar, if preferred. For all the variables derived from the TLFB data, baseline was defined as the month (that is 4 weeks/28 consecutive days) preceding the Screening Visit. The investigational medicinal product (IMP) was taken as-needed. Each patient was instructed to take a maximum of one tablet on each day the patient perceived a risk of drinking alcohol, preferably 1 to 2 hours prior to the anticipated time of drinking. If the patient had started drinking alcohol without taking nalmefene, the patient was to take one tablet as soon as possible. The dates when nalmefene was taken/not taken were recorded using the TLFB method. The chosen comparator was placebo
The efficacy of nalmefene was measured using two co-primary endpoints: the change in the monthly number of heavy drinking days (HDDs) and the change in the mean daily total alcohol consumption (TAC) per month (=28 days). A HDD was defined as a day with a consumption ≧60 g alcohol for men and ≧40 g for women. […]

[6] = system: alcohol dependence; settings: 20 mg taken when the patient experienced a craving for alcohol; Karhuvaara et al. 2007; cited from earlier work
[7] = system: patients with alcohol dependence; test: Three Lundbeck phase III studies (12014A, 12023A, 12013A) taken together, HDDs and TAC versus placebo; type: in vivo, human; settings: for Effect on HDDs and TAC compared to placebo, relative to the total population: all three studies
Description: The efficacy of nalmefene in the reduction of alcohol consumption in patients with alcohol dependence (DSM-IV) has been evaluated in two efficacy studies (Study 12014A and Study 12023A) and one safety study (Study 12013A) as described in the examples. All three studies were randomized, double blind, parallel-group and placebo-controlled.
as §3, with “aged” for “aged ≧18”
At the initial visit (screening visit), the patients' clinical status, social situation, and alcohol consumption pattern were evaluated. After a 1- to 2-week observation period the drinking risk level was re-assessed by calculating mean daily alcohol consumption in g/day over the 1- to 2-week observation period, and treatment with nalmefene was initiated together with counseling with focus on motivating the patients to adhere to the treatment and to change their drinking behavior.
The efficacy of nalmefene was measured using two co-primary endpoints: the change in the monthly number of heavy drinking days (HDDs) and the change in the mean daily total alcohol consumption (TAC) per month (=28 days).
The efficacy of nalmefene on the reduction of alcohol consumption in patients with alcohol dependence (DSM-IV) was evaluated in two efficacy studies (Study 12014A and Study 12023A). […] The efficacy of nalmefene was also evaluated in a randomised, double blind, two parallel group, placebo controlled 1 year safety study (Study 12013A). […]
as §3, with “The timeline followback (TLFB) method was used to obtain estimates of the patient's daily drinking.” left out
At the initial visit, the patients' clinical status, social situation, and alcohol consumption pattern were evaluated (based on patient reporting). […]

[8] = High DRL at baseline & randomisation

Question: Which “Mean difference to placebo in the change from baseline to month 6, HDD” value (shortened to “Mean difference to placebo in the change … HDD”) [1, 8] does the source give for `C=C1CC[C@@]2(O)[C@H]3Cc4ccc(O)c5c4[C@@]2(CCN3CC2CC2)[C@H]1O5` [nalmefene, 17-(cyclopropylmethyl)-4,5-alpha-epoxy-6-methylenemorphinan-3,14-dial] here?
Answer: The value was −3.7 days/month.

Question: What about the “Mean difference to placebo in the change from baseline to month 6, TAC” value (shortened to “Mean difference to placebo in the change … TAC”) [1, 8] of the same compound?
Answer: The value was -18.3 g/day.

Question: What about the “Mean difference to placebo in the change … HDD” value ([1]; High DRL at baseline) of the same compound?
Answer: Its value is −2.6 days/month.

Question: What about the “Mean difference to placebo in the change … TAC” value ([1]; High DRL at baseline) of the same compound?
Answer: Its value is -12.2 g/day.

Question: And the “Mean difference to placebo in the change … HDD” value ([1]; Total excl. ERs)?
Answer: Its value is −3.1 days/month.

Question: What about the “Mean difference to placebo in the change … TAC” value ([1]; Total excl. ERs) of the same compound?
Answer: Its value is -14.5 g/day.

Question: And the “Mean difference to placebo in the change … HDD” value ([1]; Total population)?
Answer: Its value is −2.3 days/month.

Question: What about the “Mean difference to placebo in the change … TAC” value ([1]; Total population) of the same compound?
Answer: The value was -11.0 g/day.

Question: And the “Superiority over placebo in the management of alcohol dependence” value [2]?
Answer: The value was “no evidence of superiority of nalmefene over placebo”.

Question: What about the “Mean difference to placebo in the change … HDD” value [3, 8] of the same compound?
Answer: The value was −2.7 days/month.

Question: What about the “Mean difference to placebo in the change … TAC” value [3, 8] of the same compound?
Answer: Its value is -10.3 g/day.

Question: What about the “Mean difference to placebo in the change … HDD” value ([3]; High DRL at baseline) of the same compound?
Answer: Its value is −2.1 days/month.

Question: And the “Mean difference to placebo in the change … TAC” value ([3]; High DRL at baseline)?
Answer: The value was -6.6 g/day.

Question: And the “Mean difference to placebo in the change … HDD” value ([3]; Total excl. ERs)?
Answer: Its value is −2.0 days/month.

Question: What about the “Mean difference to placebo in the change … TAC” value ([3]; Total excl. ERs) of the same compound?
Answer: The value was -7.0 g/day.

Question: And the “Mean difference to placebo in the change … HDD” value ([3]; Total population)?
Answer: Its value is −1.7 days/month.

Question: And the “Mean difference to placebo in the change … TAC” value ([3]; Total population)?
Answer: Its value is -5.0 g/day.

Question: What about the “Effect in the management of alcohol dependence” value [4] of the same compound?
Answer: The value was “good effect”.

Question: And the “Mean difference to placebo in the change … HDD” value [5, 8]?
Answer: Its value is −2.6 days/month.

Question: What about the “Mean difference to placebo in the change … TAC” value [5, 8] of the same compound?
Answer: Its value is -15.3 g/day.

Question: And the “Mean difference to placebo in the change … HDD” value ([5]; High DRL at baseline)?
Answer: Its value is −1.1 days/month.

Question: And the “Mean difference to placebo in the change … TAC” value ([5]; High DRL at baseline)?
Answer: Its value is -5.6 g/day.

Question: And the “Mean difference to placebo in the change … HDD” value ([5]; Total excl. ERs)?
Answer: Its value is −1.4 days/month.

Question: And the “Mean difference to placebo in the change … TAC” value ([5]; Total excl. ERs)?
Answer: Its value is -7.9 g/day.

Question: And the “Mean difference to placebo in the change … HDD” value ([5]; Total population)?
Answer: Its value is −0.9 days/month.

Question: What about the “Mean difference to placebo in the change … TAC” value ([5]; Total population) of the same compound?
Answer: Its value is -3.5 g/day.

Question: And the “Effect over placebo in the management of alcohol dependence” value [6]?
Answer: The value was “good effect of nalmefene over placebo”.

Question: And the “Reducing the number of HDDs and TAC versus placebo” value ([7]; month 6, total study population, two 6 month efficacy studies and 12 month safety study)?
Answer: Its value is “superior to placebo”.

Question: What about the “Effect on HDDs and TAC compared to placebo, relative to the total population” value (shortened to “Effect … relative to the total population”) ([7]; patients that were not ERs (total excluding Early Reducers)) of the same compound?
Answer: Its value is “more pronounced”.

Question: And the “Effect … relative to the total population” value ([7]; patients with a high DRL at baseline)?
Answer: The value was “more pronounced”.

Question: And the “Effect … relative to the total population” value ([7]; patients with a high DRL both at baseline and at randomisation)?
Answer: The value was “more pronounced; also recorded: even further pronounced”.

From patent US20140005216A1, “Nalmefene for reduction of alcohol consumption in specific target populations” (H. Lundbeck A/S, priority 2012, published 2014)
